{"source": "patent US20250163104A1", "about": "“MACROCYCLIC IMMUNOMODULATORS” (priority 2021, published 2025)", "note": "*1 amine or outer side, *2 acyl side, *3 side chain or, on linkers, in order; H or OH if unused. Where a SMILES comes first, the peptide text is derived from it. Bridges are numbered along the chain shown (N, C = ends). [ ]: non-standard residue; d: D form. The star is where a group is joined. ξ: configuration not given here. Ala(morpholin-4-yl) = N[C@@H](CN1CCOCC1)C(=O)O; Phe(4-COOH) = N[C@@H](Cc1ccc(C(=O)O)cc1)C(=O)O; X8 = O=C([C@H](Cc1ccc2ccncc2c1)N[*:1])[*:2]; Bip = N[C@@H](Cc1ccc(-c2ccccc2)cc1)C(=O)O; Phe(3-Me) = Cc1cccc(C[C@H](N)C(=O)O)c1; Val(3-OH) = CC(C)(O)[C@H](N)C(=O)O; 4Pal = N[C@@H](Cc1ccncc1)C(=O)O; Cha = N[C@@H](CC1CCCCC1)C(=O)O; Cit = NC(=O)NCCC[C@H](N)C(=O)O; Thr(3ξ) = CC(O)[C@H](N)C(=O)O; Carboxymethyl = O=C(O)C*; Nle = CCCC[C@H](N)C(=O)O; Orn = NCCC[C@H](N)C(=O)O; Pra = C#CC[C@H](N)C(=O)O; Dab = NCC[C@H](N)C(=O)O; Dap = NC[C@H](N)C(=O)O; ξA = CC(N)C(=O)O", "data": [{"biological_target": "T1, human PD-1 / PD-L1-Ig binding on Jurkat cell line over-expressing human PD-1 (Jurkat-PD-1) (Homo sapiens, UniProt Q15116)", "T1 construct": "expressed in transfected cells; host or cells: Jurkat", "T1 sequence (Q15116 25-288)": "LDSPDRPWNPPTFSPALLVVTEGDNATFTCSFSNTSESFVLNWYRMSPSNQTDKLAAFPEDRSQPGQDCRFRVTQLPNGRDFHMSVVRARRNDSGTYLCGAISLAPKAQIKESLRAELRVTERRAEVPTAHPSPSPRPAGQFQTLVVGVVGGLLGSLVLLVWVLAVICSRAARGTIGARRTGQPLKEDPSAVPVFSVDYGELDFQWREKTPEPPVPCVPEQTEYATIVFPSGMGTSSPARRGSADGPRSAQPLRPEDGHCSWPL", "test": "Jurkat-PD-1 Cell Binding High-Content Screening Assay (CBA)", "format": "cell-based", "conditions": "Jurkat-PD-1 cells, PE-labeled PD-L1-Ig 20 nM final; read-out: Jurkat HPD1_PDL1 IC50", "outline": "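Jurkat cells over-expressing human PD-1, in DMEM/10% FCS, pre-incubated with compound 2 h at 37° C. PE-labeled human PD-L1-Ig (20 nM final) added for 1 h; cells fixed in paraformaldehyde with Hoechst 33342 nuclear stain, washed, and bound fluorescence quantified by high-content imaging.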", "units": {"IC50": "nM"}, "values": [{"smiles": "CCCC[C@@H]1NC(=O)[C@H](CC(N)=O)NC(=O)[C@@H](CC(C)C)NC(=O)[C@H](CCCN)NC(=O)[C@H](C(C)C)NC(=O)[C@H](Cc2ccc(-c3ccccc3)cc2)NC(=O)[C@H](CC(C)C)NC(=O)[C@H](Cc2c[nH]c3ccccc23)NC(=O)[C@H](CC(=O)O)NC(=O)[C@H](Cc2ccncc2)NC(=O)[C@H](Cc2ccc(OCC(=O)O)cc2)NC(=O)CSC[C@@H](C(=O)NCC(N)=O)NC(=O)[C@H](CO)NC(=O)[C@H](C(C)C)NC1=O", "note": "[Compound 1343] ({CH2CO}-Y(Carboxymethyl)[4Pal]DWL[Bip]V[Orn][dL]N[Nle]VSCG-NH2; thioether N-14)", "IC50": 29.9}, {"smiles": "CC(C)C[C@@H]1NC(=O)[C@H](CCCNC(=N)N)NC(=O)[C@@H](CC(C)C)NC(=O)[C@H](CCCCN)NC(=O)[C@H](CCCNC(=N)N)NC(=O)[C@H](Cc2ccc(-c3ccccc3)cc2)NC(=O)[C@H](C(C)C)NC(=O)[C@H](Cc2c[nH]c3ccccc23)NC(=O)[C@H](CC(=O)O)NC(=O)[C@H](Cc2ccc(O)cc2)NC(=O)[C@H](CC(N)=O)NC(=O)CSC[C@@H](C(=O)N[C@@H](C)C(N)=O)NC(=O)[C@H]([C@@H](C)O)NC(=O)[C@H](C(C)C)NC1=O", "note": "[Compound 1007] ({CH2CO}-NYDWV[Bip]RK[dL]RLVTCA-NH2; thioether N-14)", "IC50": 45.3}, {"smiles": "CC(C)C[C@H]1NC(=O)[C@H](CCCN)NC(=O)[C@H](CCC(=O)O)NC(=O)[C@H](Cc2ccc(-c3ccccc3)cc2)NC(=O)[C@H](C(C)C)NC(=O)[C@H](Cc2ccc3ccncc3c2)NC(=O)[C@H](CC(=O)O)NC(=O)[C@H](Cc2ccc(OCC(=O)O)cc2)NC(=O)[C@H](CN)NC(=O)CSC[C@@H](C(=O)N[C@@H](C)C(N)=O)NC(=O)[C@H]([C@@H](C)O)NC(=O)[C@H](C(C)C)NC(=O)[C@H](CC2CCCCC2)NC(=O)[C@H](CCN)NC1=O", "note": "[Compound 2144] ({CH2CO}-[Dap]Y(Carboxymethyl)D[X8]V[Bip]E[Orn][dL][Dab][Cha]VTCA-NH2; thioether N-14)", "IC50": 785}, {"smiles": "CC(=O)NCCCC[C@@H]1NC(=O)[C@H](CCCNC(N)=O)NC(=O)[C@H](Cc2ccc(-c3ccccc3)cc2)NC(=O)[C@H](C(C)C)NC(=O)[C@H](Cc2cccc(C)c2)NC(=O)[C@H](CC(N)=O)NC(=O)[C@H](Cc2ccc(OCC(=O)O)cc2)NC(=O)[C@H](Cc2ccccc2)NC(=O)CSC[C@@H](C(=O)N[C@@H](C)C(N)=O)NC(=O)[C@H](CO)NC(=O)[C@H](C(C)C)NC(=O)[C@H](CC2CCCCC2)NC(=O)[C@H](CC(N)=O)NC(=O)[C@@H](CC(C)C)NC1=O", "note": "[Compound 2501] ({CH2CO}-FY(Carboxymethyl)N[Phe(3-Me)]V[Bip][Cit]K(Ac)[dL]N[Cha]VSCA-NH2; thioether N-14)", "IC50": 17.3}, {"smiles": "CC(C)C[C@H]1NC(=O)[C@H](CCCN)NC(=O)[C@H](CCCNC(N)=O)NC(=O)[C@H](Cc2ccc(-c3ccccc3)cc2)NC(=O)[C@H](C(C)C)NC(=O)[C@H](Cc2c[nH]c3ccccc23)NC(=O)[C@H](CC(=O)O)NC(=O)[C@H](Cc2ccc(OCC(=O)O)cc2)NC(=O)[C@H](CN)NC(=O)CSC[C@@H](C(=O)N[C@@H](C)C(N)=O)NC(=O)[C@H]([C@@H](C)O)NC(=O)[C@H](C(C)C)NC(=O)[C@H](CCC2CCCCC2)NC(=O)[C@H](CCN)NC1=O", "note": "[Compound 1348]", "IC50": 40}, {"smiles": "CCCC[C@@H]1NC(=O)[C@H](Cc2ccc(-c3ccccc3)cc2)NC(=O)[C@H](C(C)C)NC(=O)[C@H](Cc2cccc(C)c2)NC(=O)[C@H](CC(=O)O)NC(=O)[C@H](Cc2ccc(C(=O)O)cc2)NC(=O)[C@H](Cc2ccncc2)NC(=O)CSC[C@@H](C(=O)N[C@@H](C)C(N)=O)NC(=O)[C@H]([C@@H](C)O)NC(=O)[C@H](C(C)C)NC(=O)[C@H](CC2CCCCC2)NC(=O)[C@H](CCN)NC(=O)[C@@H](CC(C)C)NC(=O)[C@H](CCCN)NC1=O", "note": "[Compound 1613]", "IC50": 20.7}, {"smiles": "CC(C)C[C@@H]1NC(=O)[C@H](Cc2c[nH]c3ccccc23)NC(=O)[C@H](CC(=O)O)NC(=O)[C@H](Cc2ccc(OCC(=O)O)cc2)NC(=O)[C@H](C(C)O)NC(=O)CSC[C@@H](C(N)=O)NC(=O)[C@H](CO)NC(=O)[C@H](C(C)C)NC(=O)[C@H](CC2CCCCC2)NC(=O)[C@H](CCC(=O)O)NC(=O)[C@@H](CC(C)C)NC(=O)[C@H](Cc2cnc[nH]2)NC(=O)[C@H](C(C)C)NC(=O)[C@H](Cc2ccc(-c3ccccc3)cc2)NC1=O", "note": "(stereo partly drawn) [Compound 2608] ({CH2CO}-[Thr(3ξ)]Y(Carboxymethyl)DWL[Bip]VH[dL]E[Cha]VSC-NH2; thioether N-14)", "IC50": 118}, {"smiles": "CC(C)C[C@H]1NC(=O)[C@H](CCCN)NC(=O)[C@H](C(C)C)NC(=O)[C@H](Cc2ccc(-c3ccccc3)cc2)NC(=O)[C@H](C(C)C)NC(=O)[C@H](Cc2c[nH]c3ccccc23)NC(=O)[C@H](CC(=O)O)NC(=O)[C@H](Cc2ccc(OCC(=O)O)cc2)NC(=O)[C@H](CN)NC(=O)CSC[C@@H](C(=O)N[C@@H](C)C(N)=O)NC(=O)[C@H](CCCN)NC(=O)[C@H](C(C)C)NC(=O)[C@H](CC2CCCCC2)NC(=O)[C@H](CCN)NC1=O", "note": "[Compound 1741] ({CH2CO}-[Dap]Y(Carboxymethyl)DWV[Bip]V[Orn][dL][Dab][Cha]V[Orn]CA-NH2; thioether N-14)", "IC50": 8.8}, {"smiles": "CC(C)C[C@@H]1NC(=O)[C@H](Cc2c[nH]c3ccccc23)NC(=O)[C@H](CC(=O)O)NC(=O)[C@H](Cc2ccc(O)cc2)NC(=O)[C@H](Cc2ccccc2)NC(=O)CSC[C@@H](C(=O)NCC(N)=O)NC(=O)[C@H](CO)NC(=O)[C@H](C(C)C)NC(=O)[C@H](CC2CCCCC2)NC(=O)[C@H](CC(N)=O)NC(=O)[C@@H](CC(C)C)NC(=O)[C@H](CCCN)NC(=O)[C@H](C(C)C)NC(=O)[C@H](Cc2ccc(-c3ccccc3)cc2)NC1=O", "note": "[Compound 1334] ({CH2CO}-FYDWL[Bip]V[Orn][dL]N[Cha]VSCG-NH2; thioether N-14)", "IC50": 26.9}, {"smiles": "CC(C)C[C@H]1NC(=O)[C@H](CCCN)NC(=O)[C@H](CCC(=O)O)NC(=O)[C@H](Cc2ccc(-c3ccccc3)cc2)NC(=O)[C@H](C(C)C)NC(=O)[C@H](Cc2c[nH]c3ccccc23)NC(=O)[C@H](CC(=O)O)NC(=O)[C@H](Cc2ccc(C(=O)O)cc2)NC(=O)[C@H](CC(N)=O)NC(=O)CSC[C@@H](C(=O)N[C@@H](C)C(N)=O)NC(=O)[C@H]([C@@H](C)O)NC(=O)[C@H](C(C)C)NC(=O)[C@H](CC2CCCCC2)NC(=O)[C@H](CCN)NC1=O", "note": "[Compound 2157] ({CH2CO}-N[Phe(4-COOH)]DWV[Bip]E[Orn][dL][Dab][Cha]VTCA-NH2; thioether N-14)", "IC50": 8.1}, {"smiles": "CC(C)C[C@@H]1NC(=O)[C@H](CCN)NC(=O)[C@@H](CC(C)C)NC(=O)[C@H](CCCN)NC(=O)[C@H](C(C)C)NC(=O)[C@H](Cc2ccc(-c3ccccc3)cc2)NC(=O)[C@H](C(C)C)NC(=O)[C@H](Cc2c[nH]c3ccccc23)NC(=O)[C@H](CC(=O)O)NC(=O)[C@H](Cc2ccncc2)NC(=O)[C@H](CN)NC(=O)CSC[C@@H](C(=O)NC(C)C(N)=O)NC(=O)[C@H]([C@@H](C)O)NC(=O)[C@H](C(C)C)NC1=O", "note": "(stereo partly drawn) [Compound 1236] ({CH2CO}-[Dap][4Pal]DWV[Bip]V[Orn][dL][Dab]LVTC[ξA]-NH2; thioether N-14)", "IC50": 17.4}, {"smiles": "C#CC[C@H](NC(=O)[C@H](CCN)NC(=O)[C@@H]1CSCC(=O)N[C@@H](CN2CCOCC2)C(=O)N[C@@H](Cc2ccc(C(=O)O)cc2)C(=O)N[C@@H](CC(=O)O)C(=O)N[C@@H](Cc2cccc(C)c2)C(=O)N[C@@H](Cc2ccc(C(=O)O)cc2)C(=O)N[C@@H](Cc2ccc(-c3ccccc3)cc2)C(=O)N[C@@H](Cc2ccc(C(=O)O)cc2)C(=O)N[C@@H](CCCN)C(=O)N[C@H](CC(C)C)C(=O)N[C@@H](CCN)C(=O)N[C@@H](CC2CCCCC2)C(=O)N[C@@H](C(C)(C)O)C(=O)N[C@@H](CO)C(=O)N1)C(N)=O", "note": "[Compound 1847] ({CH2CO}-[Ala(morpholin-4-yl)][Phe(4-COOH)]D[Phe(3-Me)][Phe(4-COOH)][Bip][Phe(4-COOH)][Orn][dL][Dab][Cha][Val(3-OH)]SC[Dab][Pra]-NH2; thioether N-14)", "IC50": 2.1}, {"smiles": "CCCC[C@@H]1NC(=O)[C@H](Cc2c[nH]c3ccccc23)NC(=O)[C@H](CC(=O)O)NC(=O)[C@H](Cc2ccc(OCC(=O)O)cc2)NC(=O)[C@H](CN)NC(=O)CSC[C@@H](C(=O)N[C@@H](C)C(N)=O)NC(=O)[C@H]([C@@H](C)O)NC(=O)[C@H](C(C)C)NC(=O)[C@H](CC2CCCCC2)NC(=O)[C@H](CCN)NC(=O)[C@@H](CC(C)C)NC(=O)[C@H](CCCN)NC(=O)[C@H]([C@@H](C)CC)NC(=O)[C@H](Cc2ccc(-c3ccccc3)cc2)NC1=O", "note": "[Compound 1726] ({CH2CO}-[Dap]Y(Carboxymethyl)DW[Nle][Bip]I[Orn][dL][Dab][Cha]VTCA-NH2; thioether N-14)", "IC50": 13.1}, {"smiles": "CC(C)C[C@H]1NC(=O)[C@H](CCCN)NC(=O)[C@H](C(C)C)NC(=O)[C@H](Cc2ccc(-c3ccccc3)cc2)NC(=O)[C@H](C(C)C)NC(=O)[C@H](Cc2c[nH]c3ccccc23)NC(=O)[C@H](CC(=O)O)NC(=O)[C@H](Cc2ccc(OCC(=O)O)cc2)NC(=O)[C@H](Cc2ccc(OCC(=O)O)cc2)NC(=O)CSC[C@@H](C(=O)N[C@@H](C)C(N)=O)NC(=O)[C@H]([C@@H](C)O)NC(=O)[C@H](C(C)C)NC(=O)[C@H](CC2CCCCC2)NC(=O)[C@H](CCN)NC1=O", "note": "[Compound 1690]", "IC50": 12.4}, {"smiles": "Cc1cccc(C[C@@H]2NC(=O)[C@H](CC(=O)O)NC(=O)[C@H](Cc3ccc(C(=O)O)cc3)NC(=O)[C@H](C(C)O)NC(=O)CSC[C@@H](C(=O)N[C@@H](CCN)C(N)=O)NC(=O)[C@H](CO)NC(=O)[C@H](C(C)(C)O)NC(=O)[C@H](CC3CCCCC3)NC(=O)[C@H](CCN)NC(=O)[C@@H](CC(C)C)NC(=O)[C@H](CCCN)NC(=O)[C@H](Cc3ccc(OCC(=O)O)cc3)NC(=O)[C@H](Cc3ccc(-c4ccccc4)cc3)NC(=O)[C@H](Cc3ccc(C(=O)O)cc3)NC2=O)c1", "note": "(stereo partly drawn) [Compound 2635] ({CH2CO}-[Thr(3ξ)][Phe(4-COOH)]D[Phe(3-Me)][Phe(4-COOH)][Bip]Y(Carboxymethyl)[Orn][dL][Dab][Cha][Val(3-OH)]SC[Dab]-NH2; thioether N-14)", "IC50": 4.5}]}]}
